The source of these data is BindingDB's records for doi:10.7270/Q2BC3WXH (University of Dundee, 2010).

This assay has as its target Carbonic anhydrase 2 (Bos taurus, UniProt P00921). Description: SPR biosensor assay Biacore T100. The following applies: 25 °C; for kon: pH 7.4, read-out: kon (M-1-s-1); for Kd: pH 7.4. An excerpt:
SPR biosensor assay Biacore T100

Sequence of Carbonic anhydrase 2 (P00921 whole entry): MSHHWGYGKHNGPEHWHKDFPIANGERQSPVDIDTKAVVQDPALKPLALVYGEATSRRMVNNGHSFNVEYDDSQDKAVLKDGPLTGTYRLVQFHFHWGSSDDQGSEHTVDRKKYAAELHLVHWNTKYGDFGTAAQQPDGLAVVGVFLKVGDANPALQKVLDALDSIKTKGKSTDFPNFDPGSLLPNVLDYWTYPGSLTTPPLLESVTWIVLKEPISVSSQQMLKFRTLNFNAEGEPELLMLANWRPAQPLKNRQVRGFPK

`NS(=O)(=O)c1cc(Cl)cc(Cl)c1` [3,5-dichlorobenzene-1-sulfonamide]: the kon (in general, a measure of how fast the partners come together) was 259000 M⁻¹ s⁻¹ and the Kd (in general, the constant that tells how readily two partners part at equilibrium) came out at 287 nM.

On to `NS(=O)(=O)c1ccc2c(c1)OCCO2` [2,3-dihydro-1,4-benzodioxine-6-sulfonamide], for which the kon worked out at 109000 M⁻¹ s⁻¹ and binding was put at a Kd of 817 nM.

Turning to `CCCn1c(=O)[nH]c2cc(S(N)(=O)=O)ccc21` [2-oxo-1-propyl-2,3-dihydro-1H-1,3-benzodiazole-5-sulfonamide], the kon was determined as 93500 M⁻¹ s⁻¹ and the affinity, expressed as Kd, was 197 nM.

In the case of `Cn1cnc(S(N)(=O)=O)c1` [1-methyl-1H-imidazole-4-sulfonamide], the kon is 164000 M⁻¹ s⁻¹ and the Kd is 35300 nM. Further, for the setting “pH 7.4, read-out: koff (s-1)”, the koff (commonly a measure of how fast the partners let go of each other) was determined as 4.65 s⁻¹.

For `Cc1c(Cl)cc(F)cc1S(N)(=O)=O` [3-chloro-5-fluoro-2-methylbenzene-1-sulfonamide], the kon was 76300 M⁻¹ s⁻¹ and the Kd turned out to be 96.8 nM.

As to `Nc1nc2ccc(S(N)(=O)=O)cc2s1` [2-amino-1,3-benzothiazole-6-sulfonamide], the kon amounted to 19600 M⁻¹ s⁻¹ and the Kd is 383 nM.

Regarding `NS(=O)(=O)c1ccc(F)cc1F` [2,4-difluorobenzene-1-sulfonamide], the kon worked out at 107000 M⁻¹ s⁻¹ and the Kd came out at 394 nM.

Take `O=C1NNS(=O)(=O)c2ccccc21` [1,4-dioxo-1,2,3,4-tetrahydro-1,2,3-benzothiadiazin-1-ium-1-olate]: the kon is 1.94e+06 M⁻¹ s⁻¹ and binding was put at a Kd of 38900 nM.

As for `Nc1ccc(S(N)(=O)=O)cn1` [6-aminopyridine-3-sulfonamide], the kon was 203000 M⁻¹ s⁻¹ and the affinity, expressed as Kd, was 10800 nM.

As for `Cc1ccccc1S(N)(=O)=O` [2-methylbenzene-1-sulfonamide], the kon amounted to 240000 M⁻¹ s⁻¹ and the Kd turned out to be 2180 nM.

`NS(=O)(=O)c1ccc2c(c1)CCN2` [2,3-dihydro-1H-indole-5-sulfonamide]: the kon was determined as 58500 M⁻¹ s⁻¹ and the Kd was determined as 3110 nM.
